Substitutions are numbered along the chain they refer to.
Legend:
Assay type in all cases: biochemical
Conditions in all cases: error in parentheses, no unit in table (sec^−1)
h15-LOX-1 F414I = molecular target: T1, h15-LOX-1 F414I (Homo sapiens, UniProt P16050, F414I); assay: Steady-state substrate kinetics, F414I
T1 sequence (P16050 1-662 F414I): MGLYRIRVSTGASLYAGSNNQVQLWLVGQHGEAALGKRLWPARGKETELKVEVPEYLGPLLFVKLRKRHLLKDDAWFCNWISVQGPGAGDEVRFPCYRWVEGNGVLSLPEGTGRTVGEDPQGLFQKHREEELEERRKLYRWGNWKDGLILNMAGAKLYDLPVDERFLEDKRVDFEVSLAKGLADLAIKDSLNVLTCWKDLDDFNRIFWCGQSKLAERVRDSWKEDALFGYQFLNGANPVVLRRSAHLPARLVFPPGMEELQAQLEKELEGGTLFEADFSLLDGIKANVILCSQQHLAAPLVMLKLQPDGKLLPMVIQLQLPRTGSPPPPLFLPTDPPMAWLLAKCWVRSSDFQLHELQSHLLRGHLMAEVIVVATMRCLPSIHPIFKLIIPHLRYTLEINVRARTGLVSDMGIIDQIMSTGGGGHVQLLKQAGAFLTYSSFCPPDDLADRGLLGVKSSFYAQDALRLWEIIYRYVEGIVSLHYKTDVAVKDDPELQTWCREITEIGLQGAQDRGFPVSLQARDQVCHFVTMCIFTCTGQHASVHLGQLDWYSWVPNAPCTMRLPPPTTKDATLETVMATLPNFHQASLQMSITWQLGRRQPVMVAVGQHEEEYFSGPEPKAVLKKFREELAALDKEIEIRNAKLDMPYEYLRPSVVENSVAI

h15-LOX-1 Q547L = molecular target: T2, h15-LOX-1 Q547L (Homo sapiens, UniProt P16050, Q547L); assay: Steady-state substrate kinetics, Q547L
T2 sequence (P16050 1-662 Q547L): T1 sequence (P16050 1-662 F414I) with I414F, Q547L

h15-LOX-1 E356Q = molecular target: T3, h15-LOX-1 E356Q (Homo sapiens, UniProt P16050, E356Q); assay: Steady-state substrate kinetics, E356Q
T3 sequence (P16050 1-662 E356Q): T1 sequence (P16050 1-662 F414I) with E356Q, I414F

h15-LOX-1 L407A = molecular target: T4, h15-LOX-1 L407A (Homo sapiens, UniProt P16050, L407A); assay: Steady-state substrate kinetics, L407A
T4 sequence (P16050 1-662 L407A): T1 sequence (P16050 1-662 F414I) with L407A, I414F

kcat (h15-LOX-1 F414I): 1.8 (0.05)
kcat (h15-LOX-1 Q547L): 2.9 (0.1)
kcat (h15-LOX-1 E356Q): 3.0 (0.1)
kcat (h15-LOX-1 L407A): 2.5 (0.2)
Compound: CCCCC/C=C\C/C=C\C/C=C\C/C=C\CCCC(=O)O [AA, arachidonic acid]

Source: paper PMC5065787 (Bioorganic & medicinal chemistry, 2016)
